Assay [1] concerns the target SMARCA2 (Homo sapiens, UniProt P51531). Briefly: HiBit assay in engineered HT1080 CRISPR knock-in cell, 6 hrs (B series), SMARCA2. The note with it: 6 hrs incubation; for DC50: read-out: SMARC A2 HT1080 HiBit DC50; for Dmax: HT-1080, HT1080 CRISPR knock-in cells, read-out: SMARC A2 HT1080 HiBit Dmax (%). The class given is cell-based. Summed up:
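Using a 6 hr treatment window at 37° C and 5% CO2, tagged HT1080 knock-in cells were exposed to test compounds with DMSO vehicle held at 0.1%. Signal came from lytic LgBiT/substrate reagent added after incubation, with control wells lacking LgBiT, and was read as luminescence.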
(In general: HiBiT is a short tag that completes a luciferase, so light tracks the accessible tagged protein.)

For assay [2], the target named is SMARCA4 (Homo sapiens, UniProt P51532). Briefly: HiBit assay in engineered HT1080 CRISPR knock-in cell, 6 hrs (B series), SMARCA4. The class given is cell-based. The note with it: 6 hrs incubation; for DC50: read-out: SMARC A4 HT1080 HiBit DC50; for Dmax: HT-1080, HT1080 CRISPR knock-in cells, read-out: SMARC A4 HT1080 HiBit Dmax(%). Put shortly:
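Compounds were dispensed first, then HT1080 knock-in cells added and incubated for 6 hrs at 37° C. Next, detection reagent containing LgBiT and lytic substrate was added. Plates were shaken 10 min and centrifuged, and luminescence was measured.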

A value given as a limit tells only on which side of the number the result lay.

Twelve compounds from patent publication US20260092071A1, “COMPOUNDS AND COMPOSITIONS AS SMARCA2/4 DEGRADERS AND USES THEREOF” (REGENTS OF THE UNIVERSITY OF MICHIGAN, priority 2022, published 2026) can be followed below.

Chain of SMARCA4 (P51532 whole entry): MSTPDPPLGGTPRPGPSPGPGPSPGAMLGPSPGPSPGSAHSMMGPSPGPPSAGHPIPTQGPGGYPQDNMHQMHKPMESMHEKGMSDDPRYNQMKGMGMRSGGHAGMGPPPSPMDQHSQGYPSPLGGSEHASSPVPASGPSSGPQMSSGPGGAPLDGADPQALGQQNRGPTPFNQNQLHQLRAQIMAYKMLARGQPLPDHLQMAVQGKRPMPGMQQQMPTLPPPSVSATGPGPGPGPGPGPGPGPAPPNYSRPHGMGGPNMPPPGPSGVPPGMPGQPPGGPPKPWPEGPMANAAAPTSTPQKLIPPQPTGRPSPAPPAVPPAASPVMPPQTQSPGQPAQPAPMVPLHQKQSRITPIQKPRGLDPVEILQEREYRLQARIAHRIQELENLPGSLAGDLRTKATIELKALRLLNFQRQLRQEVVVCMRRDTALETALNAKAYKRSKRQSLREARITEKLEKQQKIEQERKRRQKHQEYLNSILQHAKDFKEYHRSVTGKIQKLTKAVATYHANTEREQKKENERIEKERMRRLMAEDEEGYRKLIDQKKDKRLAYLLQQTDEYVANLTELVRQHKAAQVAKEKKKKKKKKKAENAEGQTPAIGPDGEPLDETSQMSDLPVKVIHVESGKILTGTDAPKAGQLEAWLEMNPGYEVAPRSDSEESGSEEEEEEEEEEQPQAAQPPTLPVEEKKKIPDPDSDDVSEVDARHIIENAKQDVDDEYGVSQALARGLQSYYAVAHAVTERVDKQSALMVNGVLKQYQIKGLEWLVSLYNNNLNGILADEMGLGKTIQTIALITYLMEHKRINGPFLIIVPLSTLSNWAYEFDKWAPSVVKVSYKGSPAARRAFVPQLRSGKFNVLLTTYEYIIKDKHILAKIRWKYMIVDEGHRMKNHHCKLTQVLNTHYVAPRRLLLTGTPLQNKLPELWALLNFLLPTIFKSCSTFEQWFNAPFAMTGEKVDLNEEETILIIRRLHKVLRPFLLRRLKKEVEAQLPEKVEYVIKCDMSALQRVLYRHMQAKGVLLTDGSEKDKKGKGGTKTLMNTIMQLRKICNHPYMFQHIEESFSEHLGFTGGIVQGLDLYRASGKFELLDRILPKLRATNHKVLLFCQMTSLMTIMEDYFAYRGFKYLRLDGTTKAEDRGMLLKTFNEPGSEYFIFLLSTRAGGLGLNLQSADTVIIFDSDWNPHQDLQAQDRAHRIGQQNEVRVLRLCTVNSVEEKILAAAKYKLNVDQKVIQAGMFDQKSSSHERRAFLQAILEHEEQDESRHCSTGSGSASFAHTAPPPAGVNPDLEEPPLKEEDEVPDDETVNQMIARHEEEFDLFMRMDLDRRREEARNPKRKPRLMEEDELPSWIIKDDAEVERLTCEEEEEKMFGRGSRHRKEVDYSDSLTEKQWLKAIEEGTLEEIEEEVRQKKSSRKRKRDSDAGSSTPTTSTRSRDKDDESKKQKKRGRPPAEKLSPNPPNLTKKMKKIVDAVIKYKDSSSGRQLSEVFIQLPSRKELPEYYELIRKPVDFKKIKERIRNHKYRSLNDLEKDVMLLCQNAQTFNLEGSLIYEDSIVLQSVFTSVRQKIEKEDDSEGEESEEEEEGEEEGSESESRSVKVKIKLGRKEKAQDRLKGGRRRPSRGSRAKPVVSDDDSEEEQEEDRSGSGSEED
Chain of SMARCA2 (P51531 whole entry): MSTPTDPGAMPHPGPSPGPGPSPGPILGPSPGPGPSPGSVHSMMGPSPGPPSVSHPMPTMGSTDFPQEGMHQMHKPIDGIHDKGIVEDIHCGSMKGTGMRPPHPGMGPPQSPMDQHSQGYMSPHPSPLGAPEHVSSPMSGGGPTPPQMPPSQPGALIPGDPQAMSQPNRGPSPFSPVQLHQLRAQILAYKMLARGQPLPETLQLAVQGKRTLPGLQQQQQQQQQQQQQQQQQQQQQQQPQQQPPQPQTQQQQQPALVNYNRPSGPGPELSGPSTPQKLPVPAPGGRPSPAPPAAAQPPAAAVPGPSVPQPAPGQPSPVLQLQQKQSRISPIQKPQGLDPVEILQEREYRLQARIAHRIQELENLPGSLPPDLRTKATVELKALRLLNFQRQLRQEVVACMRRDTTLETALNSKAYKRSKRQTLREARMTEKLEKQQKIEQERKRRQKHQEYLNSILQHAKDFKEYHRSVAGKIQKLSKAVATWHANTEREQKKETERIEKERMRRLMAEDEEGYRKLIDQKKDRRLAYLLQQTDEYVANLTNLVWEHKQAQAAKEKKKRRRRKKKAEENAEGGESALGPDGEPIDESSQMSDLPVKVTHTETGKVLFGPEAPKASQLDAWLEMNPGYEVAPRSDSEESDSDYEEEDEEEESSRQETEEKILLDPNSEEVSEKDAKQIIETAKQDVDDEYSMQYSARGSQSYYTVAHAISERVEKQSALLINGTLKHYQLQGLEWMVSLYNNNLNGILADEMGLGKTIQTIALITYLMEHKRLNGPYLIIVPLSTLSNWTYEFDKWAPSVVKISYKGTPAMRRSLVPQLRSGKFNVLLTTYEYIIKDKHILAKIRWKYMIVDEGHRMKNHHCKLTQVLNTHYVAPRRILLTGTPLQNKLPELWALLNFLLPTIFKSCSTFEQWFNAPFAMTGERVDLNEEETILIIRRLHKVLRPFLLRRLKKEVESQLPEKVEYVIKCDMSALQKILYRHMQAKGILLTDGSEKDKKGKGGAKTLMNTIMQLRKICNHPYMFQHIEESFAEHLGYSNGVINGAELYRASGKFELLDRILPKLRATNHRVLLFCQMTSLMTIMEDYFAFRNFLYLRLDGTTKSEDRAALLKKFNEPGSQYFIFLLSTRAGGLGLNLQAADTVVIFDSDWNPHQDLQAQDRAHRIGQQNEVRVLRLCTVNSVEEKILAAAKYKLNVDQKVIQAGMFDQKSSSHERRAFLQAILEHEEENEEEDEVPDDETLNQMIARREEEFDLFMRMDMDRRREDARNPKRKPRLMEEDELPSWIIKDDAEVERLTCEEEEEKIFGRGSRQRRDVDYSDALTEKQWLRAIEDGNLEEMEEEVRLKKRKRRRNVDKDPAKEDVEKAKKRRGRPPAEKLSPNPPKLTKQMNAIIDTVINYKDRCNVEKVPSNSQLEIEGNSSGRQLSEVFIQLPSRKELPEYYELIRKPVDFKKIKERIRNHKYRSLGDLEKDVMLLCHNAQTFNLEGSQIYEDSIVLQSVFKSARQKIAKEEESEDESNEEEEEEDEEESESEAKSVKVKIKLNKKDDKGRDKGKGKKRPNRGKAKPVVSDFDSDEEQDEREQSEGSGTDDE

In the case of `Cc1ncsc1-c1ccc([C@H](CC(=O)NCCCN2CCC(c3ccc4c(c3)-n3c(nc(=O)c5c(Cl)cccc53)C4(C)C)CC2)NC(=O)[C@@H]2C[C@@H](O)CN2C(=O)[C@@H](NC(=O)C2(F)CC2)C(C)(C)C)cc1` [Compound B25, (2S,4R)-N-((S)-3-((3-(4-(4-chloro-7,7-dimethyl-5-oxo-5,7-dihydroindolo[1,2-a]quinazolin-10-yl)piperidin-1-yl)propyl)amino)-1-(4-(4-methylthiazol-5-yl)phenyl)-3-oxopropyl)-1-((S)-2-(1-fluorocyclopropane-1-carboxamido)-3,3-dimethylbutanoyl)-4-hydroxypyrrolidine-2-carboxamide], the DC50 in assay [1] (HT1080 CRISPR knock-in cells) is 0.501 to 1 µM; in assay [2] (HT1080 CRISPR knock-in cells) it was 0.1 to 0.5 µM. Further, the Dmax in assay [1] and in assay [2] was less than 50% throughout.
Consider `Cc1cc(C(C(=O)N2C[C@H](O)C[C@H]2C(=O)N[C@@H](C)c2ccc(-c3scnc3C#CCN3CCC(c4cccc5c4C(C)(C)c4nc(=O)c6c(Cl)cccc6n4-5)CC3)cc2)C(C)C)on1` (stereo partly drawn) [Compound B150, (2S,4R)-N-((S)-1-(4-(4-(3-(4-(4-chloro-7,7-dimethyl-5-oxo-5,7-dihydroindolo[1,2-a]quinazolin-8-yl)piperidin-1-yl)prop-1-yn-1-yl)thiazol-5-yl)phenyl)ethyl)-4-hydroxy-1-(3-methyl-2-(3-methylisoxazol-5-yl)butanoyl)pyrrolidine-2-carboxamide], for which the results for the DC50 in assay [1] (HT1080 CRISPR knock-in cells) and in assay [2] (HT1080 CRISPR knock-in cells) were less than 0.1 µM and 0.1 to 0.5 µM, respectively. The Dmax is 50 to 69% in assay [1] and less than 50% in assay [2].
The like results for `Cc1ncsc1-c1ccc([C@H](C)NC(=O)[C@@H]2C[C@@H](O)CN2C(=O)[C@@H](n2cc([C@H]3CC[C@H](CN4CCN(c5ccc6c(c5)-n5c(nc(=O)c7c(Cl)cccc75)C6(C)C)CC4)CC3)nn2)C(C)(C)C)cc1` [Compound B121, (2S,4R)-1-((S)-2-(4-((1r,4S)-4-((4-(4-chloro-7,7-dimethyl-5-oxo-5,7-dihydroindolo[1,2-a]quinazolin-10-yl)piperazin-1-yl)methyl)cyclohexyl)-1H-1,2,3-triazol-1-yl)-3,3-dimethylbutanoyl)-4-hydroxy-N-((S)-1-(4-(4-methylthiazol-5-yl)phenyl)ethyl)pyrrolidine-2-carboxamide] were, in that order, less than 0.1 µM, less than 0.1 µM, more than 90% and 70 to 90%.
The like results for `Cc1ncsc1-c1ccc2c(NC(=O)[C@@H]3C[C@@H](O)CN3C(=O)[C@@H](n3cc([C@H]4CC[C@H](CN5CCC(c6ccc7c(c6)-n6c(nc(=O)c8c(Cl)cccc86)C7(C)C)CC5)CC4)nn3)C(C)(C)C)n[nH]c2c1` [Compound B148, (2S,4R)-1-((S)-2-(4-((1r,4S)-4-((4-(4-chloro-7,7-dimethyl-5-oxo-5,7-dihydroindolo[1,2-a]quinazolin-10-yl)piperidin-1-yl)methyl)cyclohexyl)-1H-1,2,3-triazol-1-yl)-3,3-dimethylbutanoyl)-4-hydroxy-N-(6-(4-methylthiazol-5-yl)-1H-indazol-3-yl)pyrrolidine-2-carboxamide] were, in that order, 0.1 to 0.5 µM, less than 0.1 µM, less than 50% and less than 50%.
As for `Cc1ncsc1-c1ccc([C@H](C)NC(=O)[C@@H]2C[C@@H](O)CN2C(=O)[C@@H](NC(=O)[C@H]2CC[C@H](Cn3cc(-c4ccc5c(c4)C(C)(C)c4nc(=O)c6c(Cl)cccc6n4-5)cn3)CC2)C(C)(C)C)cc1` [Compound B48, (2S,4R)-1-((S)-2-((1r,4S)-4-((4-(4-chloro-7,7-dimethyl-5-oxo-5,7-dihydroindolo[1,2-a]quinazolin-9-yl)-1H-pyrazol-1-yl)methyl)cyclohexane-1-carboxamido)-3,3-dimethylbutanoyl)-4-hydroxy-N—((S)-1-(4-(4-methylthiazol-5-yl)phenyl)ethyl)pyrrolidine-2-carboxamide], the DC50 in assay [1] (HT1080 CRISPR knock-in cells) is less than 0.1 µM; in assay [2] (HT1080 CRISPR knock-in cells) it was 0.1 to 0.5 µM. In addition, the Dmax is 70 to 90% in assay [1] and less than 50% in assay [2].
Taken in the same sequence, the figures for `Cc1ncsc1-c1ccc(CNC(=O)[C@@H]2C[C@@H](O)CN2C(=O)[C@@H](NC(=O)C2(F)CC2)C(C)(C)C)c(OCCCCN2CCC(c3ccc4c(c3)-n3c(nc(=O)c5c(Cl)cccc53)C4(C)C)CC2)c1` [Compound B35, (2S,4R)—N-(2-(4-(4-(4-chloro-7,7-dimethyl-5-oxo-5,7-dihydroindolo[1,2-a]quinazolin-10-yl)piperidin-1-yl)butoxy)-4-(4-methylthiazol-5-yl)benzyl)-1-((S)-2-(1-fluorocyclopropane-1-carboxamido)-3,3-dimethylbutanoyl)-4-hydroxypyrrolidine-2-carboxamide] were less than 0.1 µM, less than 0.1 µM, more than 90% and more than 90%.
As to `Cc1ncsc1-c1ccc([C@H](C)NC(=O)[C@@H]2C[C@@H](O)CN2C(=O)[C@@H](c2cc(OCCCCN3CCC(c4ccc5c(c4)-n4c(nc(=O)c6c(Cl)cccc64)C5(C)C)CC3)no2)C(C)C)cc1` [Compound B27, (2S,4R)-1-((R)-2-(3-(4-(4-(4-chloro-7,7-dimethyl-5-oxo-5,7-dihydroindolo[1,2-a]quinazolin-10-yl)piperidin-1-yl)butoxy)isoxazol-5-yl)-3-methylbutanoyl)-4-hydroxy-N-((S)-1-(4-(4-methylthiazol-5-yl)phenyl)ethyl)pyrrolidine-2-carboxamide], the DC50 in assay [1] (HT1080 CRISPR knock-in cells) and in assay [2] (HT1080 CRISPR knock-in cells) was less than 0.1 µM throughout. The Dmax is more than 90% in assay [1] and 70 to 90% in assay [2].
Regarding `Cc1cc(C(C(=O)N2C[C@H](O)C[C@H]2C(=O)N[C@@H](C)c2ccc(-c3scnc3C#CCOCCOCCN3CCC(c4ccc5c(c4)-n4c(nc(=O)c6c(Cl)cccc64)C5(C)C)CC3)cc2)C(C)C)on1` (stereo partly drawn) [Compound B104, (2S,4R)—N—((S)-1-(4-(4-(3-(2-(2-(4-(4-chloro-7,7-dimethyl-5-oxo-5,7-dihydroindolo[1,2-a]quinazolin-10-yl)piperidin-1-yl)ethoxy)ethoxy)prop-1-yn-1-yl)thiazol-5-yl)phenyl)ethyl)-4-hydroxy-1-(3-methyl-2-(3-methylisoxazol-5-yl)butanoyl)pyrrolidine-2-carboxamide], the DC50 in assay [1] (HT1080 CRISPR knock-in cells) was less than 0.1 µM; in assay [2] (HT1080 CRISPR knock-in cells), 0.1 to 0.5 µM. The Dmax in assay [1] is more than 90%; in assay [2], 70 to 90%.
`Cc1ncsc1-c1ccc([C@H](C)NC(=O)[C@@H]2C[C@@H](O)CN2C(=O)[C@@H](NC(=O)CC2CCC(N3CCC(c4ccc5c(c4)-n4c(nc(=O)c6c(Cl)cccc64)C5(C)C)CC3)CC2)C(C)(C)C)cc1` (stereo partly drawn) [Compound B63, (2S,4R)-1-((S)-2-(2-(4-(4-(4-chloro-7,7-dimethyl-5-oxo-5,7-dihydroindolo[1,2-a]quinazolin-10-yl)piperidin-1-yl)cyclohexyl)acetamido)-3,3-dimethylbutanoyl)-4-hydroxy-N-((S)-1-(4-(4-methylthiazol-5-yl)phenyl)ethyl)pyrrolidine-2-carboxamide]: the DC50 is less than 0.1 µM in assay [1] (HT1080 CRISPR knock-in cells) and 0.1 to 0.5 µM in assay [2] (HT1080 CRISPR knock-in cells). For the same compound, the values for the Dmax in assay [1] and in assay [2] were more than 90% and less than 50%, respectively.
Taken in the same sequence, the figures for `Cc1ncsc1-c1ccc([C@H](C)NC(=O)[C@@H]2C[C@@H](O)CN2C(=O)[C@@H](c2cc(OCCCCN3CCC(c4ccc5c(c4)C(C)(C)c4nc(=O)c6c(Cl)cccc6n4-5)CC3)no2)C(C)C)cc1` [Compound B12, (2S,4R)-1-((R)-2-(3-(4-(4-(4-chloro-7,7-dimethyl-5-oxo-5,7-dihydroindolo[1,2-a]quinazolin-9-yl)piperidin-1-yl)butoxy)isoxazol-5-yl)-3-methylbutanoyl)-4-hydroxy-N-((S)-1-(4-(4-methylthiazol-5-yl)phenyl)ethyl)pyrrolidine-2-carboxamide] were less than 0.1 µM, less than 0.1 µM, more than 90% and more than 90%.
On to `Cc1ncsc1-c1ccc([C@H](C)NC(=O)C2C[C@@H](O)CN2C(=O)[C@@H](c2cc(OCCCCN3CCC(c4cccc5c4C(C)(C)c4nc(=O)c6c(Cl)cccc6n4-5)CC3)no2)C(C)C)cc1` (stereo in doubt) [Compound B98, (2S,4R)-1-(2-(3-(4-(4-(4-chloro-7,7-dimethyl-5-oxo-5,7-dihydroindolo[1,2-a]quinazolin-8-yl)piperidin-1-yl)butoxy)isoxazol-5-yl)-3-methylbutanoyl)-4-hydroxy-N-((S)-1-(4-(4-methylthiazol-5-yl)phenyl)ethyl)pyrrolidine-2-carboxamide], for which the DC50 is less than 0.1 µM in assay [1] (HT1080 CRISPR knock-in cells) and 0.1 to 0.5 µM in assay [2] (HT1080 CRISPR knock-in cells). For the same compound, the Dmax in assay [1] was 70 to 90%; in assay [2], less than 50%.
On to `Cc1ncsc1-c1ccc([C@H](CC(=O)NCC2CCC(N3CCC(c4ccc5c(c4)-n4c(nc(=O)c6c(Cl)cccc64)C5(C)C)CC3)CC2)NC(=O)[C@@H]2C[C@@H](O)CN2C(=O)[C@@H](NC(=O)C2(F)CC2)C(C)(C)C)cc1` (stereo partly drawn) [Compound B54, (2S,4R)-N-((S)-3-(((4-(4-(4-chloro-7,7-dimethyl-5-oxo-5,7-dihydroindolo[1,2-a]quinazolin-10-yl)piperidin-1-yl)cyclohexyl)methyl)amino)-1-(4-(4-methylthiazol-5-yl)phenyl)-3-oxopropyl)-1-((S)-2-(1-fluorocyclopropane-1-carboxamido)-3,3-dimethylbutanoyl)-4-hydroxypyrrolidine-2-carboxamide], for which, in assay [1] (HT1080 CRISPR knock-in cells), the “SMARC A2 HT1080 HiBit Dmax (%)” value was “D (D (<50% degradation))” and the DC50 lay in the range of 0.1 to 0.5 µM. Also, in assay [2] (HT1080 CRISPR knock-in cells), the “SMARC A4 HT1080 HiBit Dmax(%)” value is reported as “D (D (<50% degradation))” and the DC50 lay in the range of 0.1 to 0.5 µM.
